This is an account of results in ChEMBL document CHEMBL1148801, “Structural modification of the P2' position of 2,7-dialkyl-substituted 5(S)-amino-4(S)-hydroxy-8-phenyl-octanecarboxamides: the discovery of aliskiren, a potent nonpeptide human renin inhibitor active after once daily dosing in marmosets” (J Med Chem, 2007).

The nature of data set [1]: physchem. To be noted: octanol/water, pH 7.4.
The nature of data set [2]: physchem.
The nature of data set [3]: in vivo. To be noted: marmoset, po, 3 mg/kg.
Data set [4] concerns the target T1, Renin (Homo sapiens, UniProt P00797).
T1 sequence (P00797 whole entry): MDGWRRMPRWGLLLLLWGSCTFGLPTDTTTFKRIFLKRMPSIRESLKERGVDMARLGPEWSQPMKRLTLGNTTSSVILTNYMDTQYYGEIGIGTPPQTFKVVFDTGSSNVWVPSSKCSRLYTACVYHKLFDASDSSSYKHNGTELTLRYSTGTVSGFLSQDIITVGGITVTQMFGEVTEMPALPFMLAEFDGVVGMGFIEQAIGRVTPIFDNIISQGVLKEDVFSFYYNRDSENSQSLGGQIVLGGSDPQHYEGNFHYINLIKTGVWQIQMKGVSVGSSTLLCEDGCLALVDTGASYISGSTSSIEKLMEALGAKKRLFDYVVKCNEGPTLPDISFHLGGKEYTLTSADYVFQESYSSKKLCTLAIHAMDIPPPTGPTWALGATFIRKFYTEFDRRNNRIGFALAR

The target in data set [5] is T2, Renin (Callithrix jacchus, UniProt Q9TSZ1).
T2 sequence (Q9TSZ1 whole entry): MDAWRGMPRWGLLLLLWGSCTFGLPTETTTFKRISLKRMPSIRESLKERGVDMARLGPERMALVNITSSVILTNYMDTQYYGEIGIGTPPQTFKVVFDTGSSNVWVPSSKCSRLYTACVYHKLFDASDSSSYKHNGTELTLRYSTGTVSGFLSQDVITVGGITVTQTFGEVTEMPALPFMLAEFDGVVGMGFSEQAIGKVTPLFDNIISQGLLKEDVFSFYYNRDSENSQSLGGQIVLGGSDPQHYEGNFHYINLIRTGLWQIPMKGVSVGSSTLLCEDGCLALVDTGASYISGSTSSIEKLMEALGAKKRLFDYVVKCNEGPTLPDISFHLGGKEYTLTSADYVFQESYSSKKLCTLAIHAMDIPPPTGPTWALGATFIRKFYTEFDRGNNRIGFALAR
Format: cell-free, Plasma.

The target in data set [6] is T1, Renin. This is another data set of the same source.
The species named for data set [7] is Callithrix jacchus. It is filed as functional, Plasma.
Data set [8] in a line: physchem. To be noted: water.
Data set [9] deals with T3, Cathepsin E (Homo sapiens, UniProt P14091).
T3 sequence (P14091 whole entry): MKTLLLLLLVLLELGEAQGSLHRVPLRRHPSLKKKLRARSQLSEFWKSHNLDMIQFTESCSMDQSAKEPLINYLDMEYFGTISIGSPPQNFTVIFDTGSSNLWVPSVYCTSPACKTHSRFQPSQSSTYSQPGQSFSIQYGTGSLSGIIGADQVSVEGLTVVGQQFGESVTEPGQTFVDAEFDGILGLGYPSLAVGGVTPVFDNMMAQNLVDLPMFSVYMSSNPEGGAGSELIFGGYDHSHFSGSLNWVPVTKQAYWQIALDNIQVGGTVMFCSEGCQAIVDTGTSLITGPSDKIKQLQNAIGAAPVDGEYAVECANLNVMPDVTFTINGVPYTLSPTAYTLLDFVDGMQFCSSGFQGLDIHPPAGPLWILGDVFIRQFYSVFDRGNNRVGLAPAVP

In data set [10] the target is Pepsin A (Homo sapiens, UniProt P0DJD9).
Data set [11] deals with Cathepsin D (Homo sapiens, UniProt P07339).
Data set [12] in a line: in vivo. To be noted: rat, po.
Data set [13] can be described thus: in vivo. To be noted: dog, po.
The target of data set [14] is Beta-secretase 1 (Homo sapiens, UniProt P56817).
The nature of data set [15]: in vivo. To be noted: marmoset.
Data set [16] is described as follows: physchem. The source holds these as a separate data set.
A short description of data set [17]: physchem. To be noted: buffer, pH 7.4.
Data set [18] in a line: physchem. To be noted: octanol/water, pH 6.8.

As a reminder, the logD is the decadic logarithm of the distribution of all forms, ionised or not, between an organic phase and buffer at a given pH. Low values mean a more hydrophilic compound, high ones a more lipophilic compound. A word on the pKa: it is the pH at which an ionisable group is half protonated. A low value points to a group that gives up its proton readily. The term bioavailability denotes the share of a dose that reaches the circulation, judged against a reference dose that is usually intravenous. For orientation: IC50 means the midpoint of a concentration-inhibition curve. A high value points to weaker potency in that assay. The Inhibition is the drop in the measured response relative to a control, in per cent. Read a low Inhibition as little suppression. For orientation: solubility means the concentration that dissolves in the medium under given conditions. High values mean much dissolved substance, low ones little dissolved substance. For orientation: half-life means the time in which the quantity being followed falls by half.

Cathepsin D, sequence (P07339 65-162 limits assumed): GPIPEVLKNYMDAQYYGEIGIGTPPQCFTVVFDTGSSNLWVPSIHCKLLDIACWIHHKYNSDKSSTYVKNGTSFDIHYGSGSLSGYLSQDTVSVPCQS
Cathepsin D, sequence (P07339 169-412 limits assumed): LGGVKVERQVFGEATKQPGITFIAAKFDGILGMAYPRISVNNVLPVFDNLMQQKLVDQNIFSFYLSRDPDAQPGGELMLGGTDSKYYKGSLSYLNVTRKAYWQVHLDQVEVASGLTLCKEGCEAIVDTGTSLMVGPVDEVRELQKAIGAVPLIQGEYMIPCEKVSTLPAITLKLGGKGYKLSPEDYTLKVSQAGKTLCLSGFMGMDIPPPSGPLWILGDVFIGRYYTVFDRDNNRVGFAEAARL
Beta-secretase 1, sequence (P56817 whole entry): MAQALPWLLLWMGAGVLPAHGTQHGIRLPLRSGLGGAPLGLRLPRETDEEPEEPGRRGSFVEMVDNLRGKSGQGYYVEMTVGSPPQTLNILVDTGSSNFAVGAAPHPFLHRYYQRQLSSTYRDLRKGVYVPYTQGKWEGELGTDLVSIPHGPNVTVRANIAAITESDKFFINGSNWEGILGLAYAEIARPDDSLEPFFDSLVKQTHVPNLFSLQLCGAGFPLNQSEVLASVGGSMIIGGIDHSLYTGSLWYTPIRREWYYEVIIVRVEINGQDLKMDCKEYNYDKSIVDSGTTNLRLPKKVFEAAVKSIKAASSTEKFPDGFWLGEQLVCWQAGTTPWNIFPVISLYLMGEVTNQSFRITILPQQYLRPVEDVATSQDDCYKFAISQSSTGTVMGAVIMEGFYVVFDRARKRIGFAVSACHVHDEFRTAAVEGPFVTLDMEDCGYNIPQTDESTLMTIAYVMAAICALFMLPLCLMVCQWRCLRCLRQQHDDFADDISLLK
Pepsin A, sequence (P0DJD9 whole entry): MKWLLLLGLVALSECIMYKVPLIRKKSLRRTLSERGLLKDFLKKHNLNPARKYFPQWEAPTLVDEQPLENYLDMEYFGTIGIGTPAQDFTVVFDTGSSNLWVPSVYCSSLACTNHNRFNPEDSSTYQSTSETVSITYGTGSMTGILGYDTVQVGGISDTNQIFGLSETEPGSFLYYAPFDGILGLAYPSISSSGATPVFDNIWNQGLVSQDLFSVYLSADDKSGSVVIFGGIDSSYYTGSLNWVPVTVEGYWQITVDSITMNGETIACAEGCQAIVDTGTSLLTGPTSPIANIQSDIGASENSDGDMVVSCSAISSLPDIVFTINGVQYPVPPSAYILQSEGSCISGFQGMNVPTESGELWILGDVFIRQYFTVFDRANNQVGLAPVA

`COCCCOc1cc(C[C@@H](C[C@H](N)[C@@H](O)C[C@H](C(=O)NCCC(=O)N(C)C)C(C)C)C(C)C)ccc1OC`: the logD in data set [1] was determined as 2.48. The same compound returned a pKa in data set [2] of 9.4.

As for `COCCCCc1cc(C[C@@H](C[C@H](N)[C@@H](O)C[C@H](C(=O)NCCN2CCOCC2)C(C)C)C(C)C)ccc1OC.Cl`, in [3], the bioavailability stood at 30%. The IC50 in data set [4] amounted to 2 nM; in data set [5], 1 nM; in data set [6] it was 0.9 nM. This compound displayed a logD in [1] of 2.85. This compound also registered a pKa in data set [2] of 6.01.

Take `COCCCCc1cc(C[C@@H](C[C@H](N)[C@@H](O)C[C@H](C(=O)NCC(C)(C)C(N)=O)C(C)C)C(C)C)ccc1OC.Cl`: the bioavailability in data set [3] came to 8%. Further, the IC50 is 1 nM in [4], 4 nM in data set [5] and 3 nM in [6]. This compound returned a logD in data set [1] of 3.31. For the same compound, the pKa in data set [2] was 9.44.

As to `CNC(=O)C(C)(C)CNC(=O)[C@@H](C[C@H](O)[C@@H](N)C[C@H](Cc1ccc(OC)c(OCCCOC)c1)C(C)C)C(C)C.Cl`, the bioavailability in data set [3] stood at 25%. The concentration for half-maximal inhibition (IC50) in [4] is 0.4 nM; in data set [5], 2 nM; in data set [6], 0.7 nM.

Consider `COCCCOc1cc(C[C@@H](C[C@H](N)[C@@H](O)C[C@H](C(=O)NC[C@@H]2CCC(=O)N2)C(C)C)C(C)C)ccc1OC.Cl`, for which the bioavailability in data set [3] was found to be 22%. The half-inhibitory concentration (IC50) was 0.6 nM in [4], 3 nM in [5] and 0.9 nM in data set [6].

Regarding `COCCCOc1cc(C[C@@H](C[C@H](N)[C@@H](O)C[C@H](C(=O)NC(C)(C)CN2CCOCC2)C(C)C)C(C)C)ccc1OC`, the IC50 was found to be 16 nM in data set [4] and 27 nM in [6].

`CC[C@H](NC(=O)[C@@H](C[C@H](O)[C@@H](N)C[C@H](Cc1ccc(OC)c(OCCCOC)c1)C(C)C)C(C)C)C(N)=O`: the figures for the IC50 in [4] and in data set [5] were 0.8 nM and 1 nM, respectively.

With `COCCCOc1cc(C[C@@H](C[C@H](N)[C@@H](O)C[C@H](C(=O)N[C@@H](CO)C(N)=O)C(C)C)C(C)C)ccc1OC`, the IC50 was 2 nM in [4], 6 nM in data set [5] and 3 nM in data set [6].

As for `COCCCOc1cc(C[C@@H](C[C@H](N)[C@@H](O)C[C@H](C(=O)NC(C)(C)C(N)=O)C(C)C)C(C)C)ccc1OC`, the figures for the IC50 in [4], in data set [5] and in data set [6] were 13 nM, 200 nM and 100 nM, respectively.

In [3], `COCCCOc1cc(C[C@@H](C[C@H](N)[C@@H](O)C[C@H](C(=O)NCCC(=O)N(C)C)C(C)C)C(C)C)ccc1OC.Cl` returned a bioavailability of 14%.

Regarding `COCCCOc1cc(C[C@@H](C[C@H](N)[C@@H](O)C[C@H](C(=O)N[C@@H](C)CC(N)=O)C(C)C)C(C)C)ccc1OC`, the IC50 in data set [4] worked out at 1 nM; in [5] it was 3 nM; in data set [6], 2 nM.

With `COCCCOc1cc(C[C@@H](C[C@H](N)[C@@H](O)C[C@H](C(=O)NCCN2CCOCC2)C(C)C)C(C)C)ccc1OC`, the IC50 in data set [4] was found to be 0.4 nM; in data set [5] it was 3 nM; in data set [6] it was 1 nM.

Turning to `COCCCOc1cc(C[C@@H](C[C@H](N)[C@@H](O)C[C@H](C(=O)NCCc2nn[nH]n2)C(C)C)C(C)C)ccc1OC`, the IC50 in data set [4], in [5] and in [6] was 2 nM in each case.

Turning to `COCCCOc1cc(C[C@@H](C[C@H](N)[C@@H](O)C[C@H](C(=O)NC(C)CN2CCOCC2)C(C)C)C(C)C)ccc1OC` (stereo partly specified), the results for the IC50 in data set [4] and in data set [5] were 3 nM and 9 nM, respectively.

In the case of `COCCCOc1cc(C[C@@H](C[C@H](N)[C@@H](O)C[C@H](C(=O)N[C@H](C)CC(N)=O)C(C)C)C(C)C)ccc1OC`, the IC50 in [4] was 6 nM; in [5], 28 nM; in data set [6], 57 nM.

On to `CCCCNC(=O)[C@@H](C[C@H](O)[C@@H](N)C[C@H](Cc1ccc(OC)c(OCCCOC)c1)C(C)C)C(C)C.Cl`, for which the Inhibition in data set [7] turned out to be 79%.

As for `COCCCOc1cc(C[C@@H](C[C@H](N)[C@@H](O)C[C@H](C(=O)NCC(C)(C)C(=O)O)C(C)C)C(C)C)ccc1OC`, the IC50 is 3 nM in data set [4], 13 nM in [5] and 13 nM in [6].

With `COCCCOc1cc(C[C@@H](C[C@H](N)[C@@H](O)C[C@H](C(=O)NCCCN2CCOCC2)C(C)C)C(C)C)ccc1OC`, the IC50 in data set [4], in data set [5] and in data set [6] was 3 nM throughout.

As for `COCCCOc1cc(C[C@@H](C[C@H](N)[C@@H](O)C[C@H](C(=O)NC[C@H]2CCC(=O)N2)C(C)C)C(C)C)ccc1OC.Cl`, the solubility in data set [8] was greater than 100 mg/mL. Besides, the IC50 was determined as 2 nM in data set [4], 2 nM in data set [5] and 1 nM in [6]. This compound also had a logD in [1] of 2.06. In data set [2], the pKa was 9.09.

Regarding `COCCCOc1cc(C[C@@H](C[C@H](N)[C@@H](O)C[C@H](C(=O)NCC(C)(C)N2CCOCC2)C(C)C)C(C)C)ccc1OC`, the IC50 is 0.6 nM in data set [4], 18 nM in [5] and 2 nM in data set [6].

`COCCCOc1cc(C[C@@H](C[C@H](N)[C@@H](O)C[C@H](C(=O)NCC(C)(C)C(N)=O)C(C)C)C(C)C)ccc1OC.Cl`: the IC50 in data set [9], in [10], in data set [11] and in data set [14] was greater than 10000 nM each time. The results for the bioavailability in [3], in data set [12] and in [13] were 16%, 2.4% and 32%, respectively. The compound also had a half-life in [15] of 8.7 h.

For the compound `COCCCOc1cc(C[C@@H](C[C@H](N)[C@@H](O)C[C@H](C(=O)NCC(C)(C)C(N)=O)C(C)C)C(C)C)ccc1OC.COCCCOc1cc(C[C@@H](C[C@H](N)[C@@H](O)C[C@H](C(=O)NCC(C)(C)C(N)=O)C(C)C)C(C)C)ccc1OC.O=C(O)/C=C/C(=O)O` [ALISKIREN FUMARATE], the results for the solubility in data set [16] and in [17] were 0.44 mg/mL and greater than 100 mg/mL, respectively. For the same compound, the logD is 2.5 in data set [1] and 0.1 in [18]. In [2], this compound gave a pKa of 9.2.
